Test results: US10479752B2, “Deuterated tetramethyl dioic acids, compositions comprising them and uses thereof” (SYNDROMEX LTD., priority 2011, dated 2019)

How the values were obtained:
[1] = Comparative oral bioavailability / pharmacokinetic study, single intravenous and oral administration; format: in vivo; conditions: rat; for C0 / t1/2 / AUCinf / Cmax / tmax: Mean CV (%); for F (oral bioavailability): 50 mg/kg po vs 5 mg/kg iv, Mean (CV %); for tmax of the individual treated rats: oral administration 50 mg/kg, post-dose
Protocol: The pharmacokinetic properties and the oral bioavailability were investigated for the following comparative compounds:
The plasma concentrations of the test items were measured by LC/MS/MS method following single intravenous and oral administration at the doses of 5 mg/kg body weight and 50 mg/kg body weight, respectively. Following intravenous administration small inter-individual variability was observed. Following i.v administration, the highest plasma concentrations were measured at the first sampling time-point (5 minutes) followed by a biphasic continuous decrease. […] The peak concentrations, tmax and the apparent terminal elimination half-lives (t1/2) were the followings:
The vehicle for oral administration was prepared in advance. Preparation: 1 g of carboxymethylcellulose sodium salt was dissolved in 100 ml of Humaqua. The vehicle was prepared at least 2 days prior to formulation of the test items. The vehicle was stored in a refrigerator when not in use.
The required amount of test item was weighed on an analytical balance, transferred into a suitable vial. The test item was dissolved in the required volume of N,N-dimethylacetamide (40% of the final volume). Dissolution of the test item was facilitated by gentle mixing by vortex. The solution was diluted with the suitable volume of PEG400 (40% of the final volume) then Salsol A (20% of the final volume). The final concentration of the test item in the solution was 5 mg/ml. The formulations were prepared freshly on the day of administration.
The required amount of test item was weighed on an analytical balance, transferred into a test tube and mixed with the suitable volume of 1% CMC to achieve the final concentration of 25 mg/ml. The suspension was sonicated twice in bath sonicator for 30 min at 40 C (each round), and left overnight at room temperature. On the following day, the suspension was sonicated again (bath sonicator, 30 min, 40° C.) and further homogenized in a glass/glass homogenizer trying to reaching an homogenous suspension. In spite of the above procedure the quality (homogeneity) of the suspension was not perfect. The suspension was stored at room temperature till administration.
Species/Strain rat/Wistar (Crl:(WI)BR rats)
Number of animals: 24 males (at least 32 for cannulation*)
After the acclimatization period, rats were equipped with a jugular vein cannula under isoflurane anesthesia. The following day the animals were used for the study. In the morning the rats were checked for health status and blood sampling before assigning them into the experimental group.
The terminal elimination phase was defined on the basis of the last 3-5 measured concentration except rat A4. […] The central volume of distribution (Vc: […]) was approximately equal to the total blood volume. The volume of distribution estimated for the steady state situation (Vss: 97.3-143 ml/kg) remained also small compared to the total extracellular fluid volume (˜300 ml/kg). The clearance was also very small for all experimental compound analogues. The smallest clearance was obtained for Compound 7: 23.2 ml/h/kg.

[2] = Chemical and isotopic stability as solutions in DMSO/phosphate buffered saline over 48 hours; conditions: for chemical purity (HPLC area percent) with respect to related substances: all samples through the study; for analyte recovered, yield: summary over the study; for disenrichment of the product (isotopic stability): throughout the time period of the study
Protocol: A 1 mg/mL stock solution (˜55 mL) of deuterated compound in DMSO was prepared. A measured volume of stock (7.5 mL) was dispensed in to each of seven vials. To each vial was added a measured volume of PBS (aq) (3.0 mL), and each vial was agitated to mix. The vials were then placed in a thermostatically-controlled oven set to 37° C. At each time-point (0 h, 2 h, 4 h, 24 h, 48 h) a vial was drawn from the oven. To the vial was added MTBE (9.0 mL), and the mixture was stirred vigorously for 5 min. The layers were separated, and the MTBE layer was agitated with DI water (3.75 mL) for 1 min. The layers were separated. The MTBE layer was dried with MgSO4 for >1 h, and then filtered through a PTFE syringe filter into a tared vial. The solution was concentrated in vacuo to a solid residue, and the mass of the residue was calculated and recorded. To the residue a measured volume of MeOH was added to make (theoretically) a 2.5 mg/mL solution. In this case, 3.00 mL MeOH was added to each vial which theoretically contained 7.5 mg of compound. The content of each solution was measured by quantitative HPLC analysis (by comparison to a standard of known concentration). The MeOH solutions were then recovered, concentrated in vacuo to a solid, and then analyzed by GCMS to determine isotopic enrichment as the methyl ester derivatives.

Male db/db Mouse Model = assay: Comparative in vivo efficacy study, 3 h-fasting blood glucose; conditions: db/db mice
Protocol: Male db/db Mouse Model. Age of animal at start of treatment: 10-11 weeks. Animals per treatment group: 6-7 mice per each group.
Vehicle control: (1% CMC in water).
Positive control: Rosiglitazone, 25 mg/kg.
Group I: Compound 7″, 12.5 mg/kg.
Group II: Compound 7″, 25 mg/kg. […]
Group IV: Compound 7, 25 mg/kg.
Duration of treatment: 15 days.
1. Dosing: Animals are 10-11 weeks of age and were allowed to acclimate 1-2 weeks. After acclimation, animals were entered to the study and were […] daily for a duration of 15 days.
2. Formulation: compounds were formulated with […]. Formulation also involve sonication and vortexing before use.
4. Fasting Glucose Levels: 3 h-Fasting glucose levels were measured on tail blood of all the animals on days 0, 6, 12, and 16 (not shown) of the study using glucose sticks (Proforma).

[3] = DMSO/PBS solution, 37° C., 24 h
[4] = DMSO/PBS solution, 37° C., 48 h
[5] = Original Sample (before the stability study)

SMILES	C0 ([1]; 5 mg/kg iv dose)	t1/2 ([1]; 5 mg/kg iv dose)	AUCinf ([1]; 5 mg/kg iv)	Cmax ([1]; 50 mg/kg po dose)	t1/2 ([1]; 50 mg/kg po dose)	tmax ([1]; 50 mg/kg po dose)	F (oral bioavailability) [1]	AUCinf ([1]; 50 mg/kg po)	tmax of the individual treated rats [1] [h]	GC/MS IE (isotopic enrichment) ([2]; DMSO/PBS solution, 37° C., 0 h) [%]	HPLC Area Percentage ([2]; DMSO/PBS solution, 37° C., 0 h) [%]	HPLC Assay ([2]; DMSO/PBS solution, 37° C., 0 h) [%]	GC/MS IE (isotopic enrichment) ([2]; DMSO/PBS solution, 37° C., 2 h) [%]	HPLC Area Percentage ([2]; DMSO/PBS solution, 37° C., 2 h) [%]	HPLC Assay ([2]; DMSO/PBS solution, 37° C., 2 h) [%]	GC/MS IE (isotopic enrichment) ([2]; DMSO/PBS solution, 37° C., 4 h) [%]	HPLC Area Percentage ([2]; DMSO/PBS solution, 37° C., 4 h) [%]	HPLC Assay ([2]; DMSO/PBS solution, 37° C., 4 h) [%]	GC/MS IE (isotopic enrichment) [2, 3] [%]	HPLC Area Percentage [2, 3] [%]	other results
[2H]C([2H])([2H])C(CCCCCCCCCCC(C([2H])([2H])[2H])(C([2H])([2H])[2H])C([2H])([2H])C(=O)O)(C([2H])([2H])[2H])C([2H])([2H])C(=O)O [Compound 1, 3,3,14,14-[D16]Tetramethyl-1,16-hexadecanedoic acid]	67.0 (8.8%) μg/ml	2.81 (28.5%) h	137 (19.3%) h * μg/ml	114 (19.6%) μg/ml	4.29 (15.7%) h	4 (0%) h	91.0 (11.1) %	1246 (11.1%) h * μg/ml	4	98.3	98.1	66.5	98.2	97.2	64.5	98.2	97.8	70.1	98.3	97.6	HPLC Assay [2, 3]: 89.3%; GC/MS IE (isotopic enrichment) [2, 4]: 98.3%; HPLC Area Percentage [2, 4]: 97.5%; HPLC Assay [2, 4]: 86.3%; chemical purity (HPLC area percent) with respect to related substances ([2]; DMSO/PBS solution, 37° C.): around 97%; analyte recovered, yield ([2]; DMSO/PBS solution, 37° C.): over 90%; disenrichment of the product (isotopic stability) ([2]; DMSO/PBS solution, 37° C.): No disenrichment; GC/MS IE (isotopic enrichment) [2, 5]: 98.3%; HPLC Area Percentage [2, 5]: 100.0%
[2H]C([2H])([2H])C(CCCCCCCCCCCCC(C(=O)O)(C([2H])([2H])[2H])C([2H])([2H])[2H])(C(=O)O)C([2H])([2H])[2H] [Compound 7, 2,2,15,15-Tetramethyl(D12)-hexadecanedioic acid]	64.3 (16.9%) μg/ml	2.14 (2.6%) h	218 (14.9%) h * μg/ml	151 (29.0%) μg/ml	6.64 (50.3%) h	4 (0%) h	102 (36.8) %	2221 (36.8%) h * μg/ml	4	99.9	96.8	89.4	99.9	95.4	101.6	99.9	95.8	91.6	99.9	96.9	efficacy on 3 h-fasting blood glucose, in words (Male db/db Mouse Model; Group III (Compound 7, 25 mg dose) compared with Groups I and II (Compound 7″)): exceeds that of both treatment Groups I and II; glucose level reached (normalized plasma levels) (Male db/db Mouse Model; Group IV (Compound 7, 25 mg)): less than 110 mg %; efficacy on 3 h-fasting blood glucose, in words (Male db/db Mouse Model; Group IV (Compound 7, 25 mg), days 0, 6, 12, compared with Rosiglitazone 25 mg/kg): greater efficacy as compared with Rosiglitazone; mean residence time ([1]; intravenous administration): 4.2 h; clearance ([1]; iv administration): 0.387 mL/min/kg; mean residence time ([1]; oral administration): 11.8 h; HPLC Assay [2, 3]: 92.3%; GC/MS IE (isotopic enrichment) [2, 4]: 99.9%; HPLC Area Percentage [2, 4]: 96.7%; HPLC Assay [2, 4]: 82.2%; chemical purity (HPLC area percent) with respect to related substances ([2]; DMSO/PBS solution, 37° C.): around 96%; analyte recovered, yield ([2]; DMSO/PBS solution, 37° C.): approximately 90%; disenrichment of the product (isotopic stability) ([2]; DMSO/PBS solution, 37° C.): No disenrichment; GC/MS IE (isotopic enrichment) [2, 5]: 99.9%; HPLC Area Percentage [2, 5]: 99.5%
